Patent US8748464B2, “Use of SIRT1 activators or inhibitors to modulate an immune response” (The J. David Gladstone Institutes, priority 2008, dated 2014)

What was measured:
Jurkat T cells = assay: IL-2 protein ELISA in supernatant of α-CD3-stimulated Jurkat T cells infected with EF-1α-GFP or EF-1α-Tat-GFP viruses; format: cell-based, human; conditions: 16 hrs
Experimental: Lentiviral vectors, which contained the heterologous elongation factor 1α (EF-1α) promoter driving Tat and GFP expression, were generated. High titer viral stocks were produced and used to infect Jurkat T cells. […] Infected cultures were stimulated with antibodies specific for the CD3 receptor and treated with increased concentrations of resveratrol (0.4 μM, 2 μM, and 10 μM), a known SIRT1 activator for 16 hrs. IL-2 protein was measured in the culture supernatant by ELISA assay. Following stimulation with α-CD3 antibody, IL-2 protein was superinduced ˜4-fold by wild type Tat (FIG. 8A). In cells expressing Tat, ˜2300 pg/ml of IL-2 protein was detected in response to α-CD3 treatment, whereas in control cells, only ˜600 pg/ml of IL-2 protein was induced.
The effects of small molecule of SIRT1 ([…]) on T cell hyperactivation in Tat-expressing cells were examined. Jurkat T cells were infected with EF-1α-GFP or EF-1α-Tat-GFP viruses (FIG. 8B). Infected cultures were stimulated with α-CD3 antibody and treated with SRT2183 (0.2, 1, and 5 μM) for 16 hrs.
FIGS. 8A and 8B. Resveratrol and small molecule activator of SIRT1 (SRT2183) suppresses T cell hyperactivation by Tat. (A) IL-2 protein levels measured by ELISA in the supernatant of infected cultures. 24 hrs after infection with EF1α-GFP and EF1α-Tat-GFP viruses, Jurkat T cells were stimulated with α-CD3 antibody in the presence of increased concentrations of resveratrol (0.4, 2, and 10 μM) for 16 hrs. (B) 24 hrs after infection with EF1α-GFP and EF1α-Tat-GFP viruses, Jurkat T cells were stimulated with α-CD3 antibody in the presence of increased concentrations of SRT2183 (0.2, 1, and 5 μM) for 16 hrs. IL-2 protein levels were measured by ELISA in the supernatant of infected cultures.

[1] = tested on: FLAG-FoxP3 in 293 T cells; assay: Immunoprecipitation/western blot of acetylated FLAG-FoxP3 or HA-AML1/Runx1 in 293 T cells cotransfected with p300; format: cell-based
Description: FIGS. 10A-D. SIRT1 interacts with FoxP3 and inhibition of SIRT1 deacetylase activity increases acetylation of FoxP3. (A) Communoprecipitation/western blot analysis of FLAG-tagged FoxP3 and HA-tagged SIRT1 after transfection of corresponding expression vectors or empty vector controls into 293T cells. (B) Communoprecipitation assay of SIRT1 and FoxP3 deletion mutants. A schematic summary of the binding of FoxP3 mutants to SIRT1 is shown. The forkhead box (FH) indicates the DNA binding domain ZnF, zinc finger domain; LZ, leucine zipper. […] An expression vector for the p300 acetyltransferase was cotransfected with FoxP3. (D) The same experiment as in (C) using HA-AML1/Runx1. Immunoprecipitations were performed with either anti-FLAG antibody coupled to agarose (α-FLAG agarose) (C) or anti-hemagglutinin antibody coupled to agarose (α-HA agarose) (D) and western blotting with rabbit polyclonal antibody to acetyl-lysine (α-acetyl lysine) (α-AcK), α-FLAG or α-HA antibodies.

[2] = tested on: FLAG-FoxP3 in 293 T cells; assay: Western blot of FLAG-FoxP3 (wild type or mutant) or FLAG-AML1/Runx1 expression in 293 T cells; format: cell-based; conditions: for expression of FLAG-AML1/Runx1 / FoxP3 protein expression: Ex-527 50 μM or TSA 400 nM, 16 hours; for FoxP3 protein expression: nicotinamide 5 mM
Experimental: To determine whether the three newly identified acetylated lysine residues regulate FoxP3 stability, mutants were generated in which each of three lysine residues was substituted to arginines (KR), a conservative mutation that preserves the positive charge of the residue.
To investigate the effect of SIRT1 inhibition and the three newly identified acetylation sites on FoxP3 protein stability, wild type and 3KR mutant FoxP3 protein expression was measured after treatment with cycloheximide (CHX), a general inhibitor of protein translation.
(B) Scheme of acetylated lysine residues identified by mass spectrometry using immunoprecipitated FLAG-FoxP3 protein. The murine protein is shown.

[3] = tested on: naïve CD4+ T cells undergoing differentiation into iTreg cells; assay: Intracellular flow cytometry of FoxP3 in naïve CD4+ T cells differentiating into iTreg cells; format: cell-based, mouse
Experimental: To gain insight into the role of SIRT1 in Treg biology, SIRT1 protein expression during ex vivo Treg differentiation was analyzed. Naïve CD4^+ T cells (CD4+CD25-CD69-CD44-) were isolated from mouse spleen and lymph nodes and were activated by anti-CD3/CD28 antibodies alone or in combination with cytokines driving differentiation into T helper (Th) 1, Th2 or induced Treg (iTreg) cells. While SIRT1 expression was increased upon CD3/CD28 activation, it was decreased after T cell differentiation, most noticeably in iTregs (FIG. 9A, lane 5).
To test whether SIRT1 plays a role in iTreg differentiation, SIRT1 was overexpressed during iTreg differentiation. Activated CD4+ cells were infected with bicistronic retroviral vectors expressing SIRT1 and the Thy1.1 surface marker (MSCV-SIRT1-Thy1.1) or a control vector expressing Thy1.1 alone (MSCV-Thy1.1). Cell were further differentiated into Tregs in the presence of recombinant human TGF-β and recombinant human IL-2 as previously described (Fu et al., 2004). After 3 days, cells were stained for surface Thy1.1 and intracellular FoxP3 and analyzed by flow cytometry. […] Cells were cultured 3 more days in IL-2 alone and were reanalyzed at day 6 after infection. Both, the number of FoxP3^+/Thy1.1^+ cells and FoxP3 MFI were decreased in SIRT1-expressing cells (FIG. 9B). The opposite result was observed when SIRT1 was knocked down during iTreg differentiation using lentiviral shRNA vectors.
To test the effect of Ex-527 on FoxP3 expression in […] FoxP3-expressing cells, Ex-527 was added to naïve CD4+ T cells undergoing differentiation into iTreg cells. The number of FoxP3-expressing cells increased up to 3-fold in the presence of Ex-527 as compared to cells treated with the drug vehicle alone (FIG. 12A). […]
FIGS. 12A and 12B. […] (B) Flow cytometry of GFP in natural Treg populations isolated from GFP-FoxP3 knock-in mice, in which GFP is expressed as a fusion protein with FoxP3. […] Cells were further cultured with either DMSO or Ex-527 for additional 2 and 7 days and FoxP3 expression was analyzed as in (A). […]

[4] = tested on: natural thymus-derived Treg cells; assay: Ex vivo expansion of natural Tregs from GFP-Foxp3 knock-in mice, flow cytometry of GFP and western blot; format: cell-based, mouse
Experimental: To test the effect of Ex-527 in natural thymus-derived Treg cells, GFP+ cells were isolated from GFP-Foxp3 knock-in mice, in which green fluorescent protein (GFP) is expressed as a fusion protein with FoxP3. Total CD4+ T cells were isolated from spleen and lymph nodes of these mice, and GFP+ T cells were sorted with >95% purity. GFP+ T cells were expanded by anti-CD3/CD28 beads and IL-2 for 5 days when Ex-527 or dimethylsulfoxide (DMSO) was added. Two days later, 75% of cells were GFP-positive regardless whether Ex-527 was added or not; however, the MFI of GFP was increased in Ex-527-treated cells (FIG. 12B, day 7). 7 days later, only 5% of cells remained GFP-positive in control-treated cells versus 45% in Ex-527-treated cultures (FIG. 12B, day 12). In addition, the […] of FoxP3 remained higher in Ex-527-treated cells versus control-treated cells (387 versus 263). […] No FoxP3 expression was detected from either GFP-negative cells or cells expanded in the absence of Ex-527 (FIG. 12B). […] Thus, SIRT1 inhibitors, e.g., Ex-527, can be used to maximize ex vivo or in vivo expansion of Tregs for therapeutic purposes.
FIGS. 12A and 12B. Inhibition of SIRT1 activity by Ex-527 promotes differentiation of iTreg cells and FoxP3 expression in nTreg cells. (A) Intracellular flow cytometry (% FoxP3+ cells and MFI) of FoxP3 in induced Tregs treated during differentiation with Ex-527 (50 μM) or DMSO as control. Shown are averages of three independent experiments (mean±SD). (B) Flow cytometry of GFP in natural Treg populations isolated from GFP-FoxP3 knock-in mice, in which GFP is expressed as a fusion protein with FoxP3. GFP+ nTregs were expanded by α-CD3/CD28 beads and hIL-2 (2000 U/ml) for 5 days. Cells were further cultured with either DMSO or Ex-527 for additional 2 and 7 days and FoxP3 expression was analyzed as in (A). Western blot analysis of FoxP3 in cell lysates from GFP−, GFP+, and GFP+ cultures expanded as described in the presence of DMSO or EX-527.

[5] = 50 μM during iTreg differentiation
[6] = day 7 (two days after addition)

O=C(Nc1ccccc1-c1cn2c(CN3CC[C@@H](O)C3)csc2n1)c1ccc2ccccc2c1 [SRT2183]
IL-2 protein in Tat expressing cells (Jurkat T cells; 5 μM): suppressed the production of IL-2 protein | IL-2 protein in control cells (Jurkat T cells; 5 μM): slight increase in IL-2 protein | IL-2 protein in control and Tat expressing cells (Jurkat T cells; 0.2 and 1 μM): caused increases in IL-2 protein

CC(/C=C/C(=O)NO)=C\[C@@H](C)C(=O)c1ccc(N(C)C)cc1 [trichostatin A]
acetylation levels of FoxP3 [1]: hyperacetylation | acetylation of AML1/Runx1 [1]: increased to the same extent | expression of FLAG-AML1/Runx1 ([2]; 293 T cells): increased both FoxP3 and AML1/Runx1 expression | FoxP3 protein expression ([2]; 293 T cells): increased both FoxP3 and AML1/Runx1 expression

NC(=O)C1CCCc2c1[nH]c1ccc(Cl)cc21 (centres unmarked) [Ex-527, 6-chloro-2,3,4,9-tetrahydro-1H-carbazole-1-carboxamide]
increase of mean fluorescent intensity (MFI) of FoxP3 expression [3, 5]: up to 2 fold | increase of number of FoxP3-expressing cells vs drug vehicle [3, 5]: up to 3 fold | FoxP3 mRNA levels in iTreg cells ([3]; during iTreg differentiation): no effect | GFP-positive cells [4, 6]: 75% | MFI of GFP [4, 6]: increased | FoxP3 expression by western blot analysis ([4]; day 12): remained visible | MFI of FoxP3 ([4]; day 12): 387 | GFP-positive cells ([4]; day 12 (7 days after addition)): 45% | FoxP3 mRNA levels ([2]; 293 T cells): No effect | expression of K31R mutant FLAG-FoxP3 ([2]; 293 T cells, 50 μM): increased expression of the K31R mutant to comparable levels as the wild type FoxP3 protein | expression of K262/267R double mutant FLAG-FoxP3 ([2]; 293 T cells, 50 μM): could not further increase | increase of expression of K262R and K267R mutant FLAG-FoxP3 ([2]; 293 T cells, 50 μM): less visible | expression of FLAG-AML1/Runx1 ([2]; 293 T cells): unchanged | FoxP3 protein expression ([2]; 293 T cells): increased FoxP3 protein expression to a similar extent as nicotinamide | wild type FoxP3 protein expression after cycloheximide ([2]; 4 h of CHX treatment): stabilized FoxP3 protein expression | 3KR mutant FoxP3 protein expression after cycloheximide ([2]; 4 hour-time point of CHX treatment): no further stabilization
